This note sets out measurements from patent US9566250B2, “Artificial tissue constructs comprising alveolar cells and methods for using the same” (SANOFI PASTEUR VAXDESIGN CORPORATION, priority 2007, dated 2017).

One series concerns CYP1A1 and CYP2B1. Nature of the series: Cytochrome P450 activity of bilayer construct after induction (7-ethoxy/7-pentoxy resorufin). The series is classed as cell-based, human. To be noted: 24 h exposure, then 7-ethoxy or 7-pentoxy resorufin for 30 min; FIG. 8. Here is the method: The effects of polycyclic carcinogens on cytochrome P450 activity in the artificial tissue constructs was also analyzed. Cytochrome P450 proteins are involved in the metabolism of many exogenous and endogenous chemicals, including drugs, steroids, and toxins. Cytochrome P450 induction is indicative of chemical metabolism. Cellular P450 enzyme activity of CYP1A1 & CYP2B1 families was studied. The bilayer constructs were prepared from biopsy samples of three different patients.
The mucosal construct was exposed to either 3-methylcholantherine and β-nitrophenol (FIG. 8) for 24 h, followed by 7-ethoxy resorufin (5-15 μM) or 7-pentoxy resorufin (5-15 μM) addition (for 30 min) to quantify CYP 1A1 and CYP 2B1 activity, respectively. A β-glucuronidase and arylsulfatase enzyme cocktail was then added to the samples and they were incubated for 2 h at 37° C. Fluorometric absorbance was then measured. A standard curve was prepared using resorufin to quantify the P450 activity. 3-Methylcholanthere and β-nitrophenol are known environmental carcinogens found in cigarette smoke and in airborne industrial byproducts.

In series [1] the test system is alveolar artificial tissue construct cells. Nature of the series: WST-1 cellular (mitochondrial) activity of treated construct cells. Type of series: cell-based, human. The conditions noted are these: stated in the WST-1 paragraph; 24-h treatments. Here is the method: Cellular uptake of WST-1 was used to determine the mitochondrial activity of live cells. A spectroscopic reading of the collected/metabolized tetrazolium salt was performed to compare the cellular activity of hormone or bacterial particle treated cells to the non-treated control cells after 24-h treatments.

Series [2] concerns bilayer mucosal construct (primary human alveolar epithelial and endothelial cells). Nature of the series: Cytokine production by bilayer alveolar mucosal construct (BioPlex/Luminex 22-plex). The series is classed as cell-based. The conditions noted are these: corticosteroid addition for 24 h vs control; FIG. 7. Here is the method: Immunosuppressant effects on the cultured mucosal construct were tested by the addition of, for example, dexamethasone (0.5-0.1 μM) and hydrocortisone (5-10 μM) for 24 h. The effect of, for example, diesel particles (0.01-0.2 mg/mL) and urban dust (0.01-0.2 mg/mL) exposure was also studied in the alveolar tissue. NIST standards Diesel Particulate Matter (SRM 2975), and Urban Dust (SRM 1649a), containing both organic and inorganic components, were used as environmental irritants (FIG. 3). A BioPlex 22-Plex™ cytokine kit (Upstate) was used to quantify the cytokine levels in the collected media.
The cytokine profile of the bilayer construct prepared in a 0.33 cm^2 area Transwell™ cell culture device was compared with the alveolar epithelial cells cultured in T-25 flasks. Controls for each experiment with or without the various irritant treatments were also included in the experimental design.
The effects of immunosuppressant hormonal treatment (dexamethasone and hydrocortisone) and exposure to bacterial particles (E. coli and Staphylococcus aureus) on respiratory cells were examined by quantifying cytokine production by the mucosal tissue. […]
Using Luminex™ immunoassay technology, we simultaneously quantified the 22 cytokine and chemokines in the collected treatment media. […]

Turning to `O=c1cc(-c2ccccc2)oc2ccc3ccccc3c12` [BNF, β-napthophenol], the “p450 (CYP1A1 and CYP2B1) activation of construct cells” value in the series with CYP1A1 and CYP2B1 is given as “less activated”. In series [1], the “activation of alveolar artificial tissue construct cells” value is given as “less activated”.
`C[C@]12CCC(=O)C=C1CC[C@@H]1[C@@H]2[C@@H](O)C[C@@]2(C)[C@H]1CC[C@]2(O)C(=O)CO` [hydrocortisone]: in series [2], the “cytokine production by the native cells of the bilayer mucosal construct” value is “significant decrease”.
With `Cc1ccc2cc3c(ccc4ccccc43)c3c2c1CC3` [3-methylcholanthere], in the series on CYP1A1 and CYP2B1, the “p450 (CYP1A1 and CYP2B1) activation of construct cells” value is reported as “activated”. The “activation of alveolar artificial tissue construct cells” value in series [1] is listed as “activated”.
